Assay results from patent US20180353461A1, “USE OF CANNABINOIDS AS CERAMIDE-GENERATING ANTICANCER AGENTS IN TUMORS OF THE HEMATOPOIETIC AND LYMPHOID TISSUES” (priority 2014, published 2018).

What was measured:
[1] = system: HL60 cells; experiment: SPT expression, ceramide staining and SPT inhibition in HL60 cells; assay type: cell-based, human; conditions: HL60, co-incubation with cannabinoid, 2 hours
Protocol: Extracted proteins (15-25 ug/well) were separated by sodium dodecyl sulfate-polyacrylamide gel electrophoresis (SDS/PAGE) in pre-cast polyacrylamide gels AnykD (Bio-Rad Laboratories, Hercules, Calif., USA) under reducing and denaturing conditions. Electrophoretic run was performed at a constant current of 15 mA per gel in a Mini-Protean® Tetra Cell (Bio-Rad Laboratories) and were electrophoretically transferred onto PVDF membranes using Trans-Blot® Turbo™ System (Bio-Rad Laboratories). Blocking was performed with 2% bovine serum albumin [(BSA), Santa Cruz Biotechnology] in Tween-Tris buffer saline (TTBS). Membranes were incubated overnight at 4° C. with corresponding primary antibody in TTBS.
Cells were grown on glass cover slips (Menzel-Glaser, Thermo Fisher Scientific) in the presence or absence of WIN 55,212-2. The cover slips were then washed twice in phosphate-buffered saline (PBS), and the cells were fixed in cold 4% paraformaldehyde for 10 min, treated with sodium borohydride and, permeabilized in 0.02% Triton X-100 in PBS with 10% normal donkey serum for blocking. Cell nuclei were stained with diamidino-2-phenylindole [(DAPI), Pierce, Thermo Fisher Scientific)]. Then, cells were incubated with the anti-CB1 or anti-CB2 receptor antibodies or anti-ceramide in blocking buffer overnight at 4° C. in a humid chamber (Simport, Beloeil, QC, Canada). After washing with PBS, samples were further incubated for 90 min with Alexa 647- or Alexa 488-conjugated donkey secondary antibody.
After final washing in PBS, the cover slips were dried and mounted on slides using Fluoromount Aqueous Mounting Medium (Sigma-Aldrich). Changes in the protein expression were visualized by fluorescence microscopy using a specific excitation for each antibody. Digital images were acquired with CellSens Dimension Software (Olympus) and manipulated with Photoshop CS2 Software (Adobe Systems Inc). There was no labeling when the primary antibody was omitted (data not shown).
Additionally, de novo synthesis of ceramides also contribute to the apoptotic process triggered by cannabinoids in AML. We examined whether ceramides participate in the cannabinoid-induced apoptosis in leukemic cells. To this end, we analyzed the expression of serine palmitoyltransferase (SPT), the enzyme that catalyses the rate-limiting step of ceramide synthesis de novo. […] To ensure that this up-regulation of SPT entails an increased of ceramide synthesis, we examined the expression of ceramide by immunohistochemistry. […] Furthermore, to strengthen the engagement of the ceramide in cannabinoid-induced apoptosis, we analyzed the cannabinoid-induce apoptosis after inhibition of ceramide synthesis with Myoricin, a selective SPT inhibitor.

[2] = system: U266 cells; experiment: SPT expression, ceramide staining and SPT inhibition in U266 cells; assay type: cell-based, human; conditions: U266, co-incubation with cannabinoid, 6 hours
Protocol: Except if otherwise indicated, for the viability assays primary cells were incubated 18 hours, with vehicle (with <0.15% DMSO) or cannabinoid. Meanwhile, the time course assays cells were performed at 0, 2, 6, 18 and 24 h. For the analysis of SPT activity, cells were co-incubated for the first 6 hours with the SPT inhibitor, myriocin, and the cannabinoid, WIN-55 or JWH-133.
Samples (15-25 ug/lane) were subjected to SDS/PAGE in pre-cast polyacrylamide gels AnykD (Bio-Rad Laboratories, Hercules, CA, USA) under reducing and denaturing conditions. Electrophoretic run was performed at a constant current of 15 mA per gel in a Mini-Protean® Tetra Cell (Bio-Rad Laboratories). Once proteins were separated by electrophoresis, were transferred onto PVDF membranes using Trans-Blot® Turbo™ System (Bio-Rad Laboratories). Electrotransference was conducted at constant amperage of 1.2 mA and at up to 25 V of voltage. The blotted membranes were then blocked with 2% bovine serum albumin [(BSA), Santa Cruz Biotechnology] in Tween-Tris buffer saline (TTBS) for 30 min with gentle agitation, and incubated overnight at 4° C. with corresponding primary antibody in TTBS. After twice washing with TTBS, membranes were incubated for 1-2 h at room temperature with suitable conjugated-HRP secondary antibody, and subjected to chemiluminescence detection using Western Blotting Luminol Reagent (Santa Cruz Biotechnology). Loading controls were carried out with an anti-beta-actin and anti-beta-tubulin antibodies (Sigma-Aldrich). Blots were captured using a digital imaging system ImageQuant LAS 4000 (Amersham GE Healthcare) and transferred to a digital image processing software to analyze (Adobe Photoshop CS2, version 9.0., Adobe Systems Inc., San Jose, Calif.).
After cannabinoids and/or antagonists or SPT inhibitor treatment, primary cells and cell lines were washed with PBS, collected and placed on slides (Menzel-Glaser, Thermo Fisher Scientific). Cells were fixed in cold 4% paraformaldehyde for 10 min, treated with sodium borohydride and, permeabilized in 0.02% Triton X-100 in PBS with 10% normal donkey serum for blocking. Then, cells were incubated with the anti-CB1 or anti-CB2 receptor antibodies, anti-active-caspase3, anti-ceramide in blocking buffer overnight at 4° C. in a humid chamber (Simport, Beloeil, QC, Canada). After washing with PBS, samples were further incubated for 90 min with Alexa 647- or Alexa 488—conjugated donkey secondary antibody. After twice washing, first with PBS and then with 50 mM Tris-HCl (pH 7.4), and were dipped in a solution of Sudan Black B (Sigma-Aldrich) in 70% methanol for 5 min. After immunocytochemistry, slides were mounted using Fluoromount Aqueous Mounting Medium (Sigma-Aldrich). Preparations were examined with an Olympus BX-61 microscope (Olympus, Hamburg, Germany) equipped with appropriate filters: FITC/Cy2 (green fluorophores) 460-490 nm bandpass excitation filter and 510-550 nm bandpass emission filter; rhodamine/Cy3 (red fluorophores) 541-551 nm excitation and 572-607 nm emission; and Cy5 (deep red fluorophore) 615-635 nm excitation and 655 nm longpass emission. Digital images were acquired with CellSens Dimension Software (Olympus) and contrasted with Photoshop CS2 Software (Adobe Systems Inc). […]
De novo synthesis of ceramides contribute to the apoptotic process triggered by cannabinoids. […] To this end, we analyzed the expression of serine palmitoyltransferase (SPT), the enzyme that catalyses the rate-limiting step of ceramide synthesis de novo. […]

CCCCCCC(=O)CCCCCC/C=C/C[C@@H](O)[C@H](O)[C@@](N)(CO)C(=O)O [Myoricin]
fragmentation of PARP induced by cannabinoid, after blockage of ceramide synthesis [1]: abolished, at least in part | fragmentation of PARP induced by cannabinoid, after blockage of ceramide synthesis [2]: abolished, at least in part
